Results: US20120071522A1, “THERMAL STABILIZATION OF BIOCIDES IN MATRIX COMPOSITIONS PROCESSED AT ELEVATED TEMPERATURES” (priority 2004, published 2012)

Experiment: Thermal stability (color change) of biocide in polyethylene and wood-plastic composite matrixes processed at elevated temperatures
Assay type: physicochemical

| SMILES | color change |
| --- | --- |
| CCCCNC(=O)OCC#CI [IPBC] | no color change |
| O=C1c2ccccc2C(=O)N1SC(Cl)(Cl)Cl [Fungitrol® 11, N-(trichloromethylthio) phthalimide] | no color change |
